Tests used:
Experiment in all cases: KINOMEscan competition binding
Conditions in all cases: compound 10.0 µM; call rule not given here
AAK1 (human) = AAK1 (human) (UniProt Q2M2I8)
AURKA (human) = AURKA (human) (UniProt O14965)
CDK16 (human) = CDK16 (human) (UniProt Q00536)
CDK5 (human) = CDK5 (human) (UniProt Q00535)
CLK2 (human) = CLK2 (human) (UniProt P49760)
EPHA2 (human) = EPHA2 (human) (UniProt P29317)
EPHB4 (human) = EPHB4 (human) (UniProt P54760)
FGFR1 (human) = FGFR1 (human) (UniProt P11362)
[1] = molecular target: JAK2 JH1 catalytic (human) (UniProt O60674)
MYLK2 (human) = MYLK2 (human) (UniProt Q9H1R3)
NEK9 (human) = NEK9 (human) (UniProt Q8TD19)
NTRK3 (human) = NTRK3 (human) (UniProt Q16288)
PAK1 (human) = PAK1 (human) (UniProt Q13153)
PDGFRA (human) = PDGFRA (human) (UniProt P16234)
PLK4 (human) = PLK4 (human) (UniProt O00444)
PRKCA (human) = PRKCA (human) (UniProt P17252)
PRKCH (human) = PRKCH (human) (UniProt P24723)
RPS6KA4 KD1 (human) = RPS6KA4 KD1 (human) (UniProt O75676)
STK17B (human) = STK17B (human) (UniProt O94768)
STK33 (human) = STK33 (human) (UniProt Q9BYT3)
TTK (human) = TTK (human) (UniProt P33981)
YES1 (human) = YES1 (human) (UniProt P07947)
Sequence of YES1 (human) (P07947 whole entry, looked up): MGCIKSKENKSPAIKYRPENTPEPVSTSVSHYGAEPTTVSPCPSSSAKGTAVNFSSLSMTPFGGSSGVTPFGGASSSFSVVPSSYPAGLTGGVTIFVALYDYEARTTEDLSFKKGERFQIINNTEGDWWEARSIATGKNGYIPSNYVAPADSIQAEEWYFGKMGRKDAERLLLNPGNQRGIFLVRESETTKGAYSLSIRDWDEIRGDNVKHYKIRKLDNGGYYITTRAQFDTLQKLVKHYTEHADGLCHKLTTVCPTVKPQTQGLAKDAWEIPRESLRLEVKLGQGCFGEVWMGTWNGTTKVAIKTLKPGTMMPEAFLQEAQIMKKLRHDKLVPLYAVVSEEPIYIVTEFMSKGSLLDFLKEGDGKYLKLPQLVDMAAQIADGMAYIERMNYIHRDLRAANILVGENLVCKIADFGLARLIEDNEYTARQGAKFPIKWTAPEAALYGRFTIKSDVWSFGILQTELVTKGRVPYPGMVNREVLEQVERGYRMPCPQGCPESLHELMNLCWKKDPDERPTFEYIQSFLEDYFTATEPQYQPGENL

Sequence of STK17B (human) (O94768 whole entry, looked up): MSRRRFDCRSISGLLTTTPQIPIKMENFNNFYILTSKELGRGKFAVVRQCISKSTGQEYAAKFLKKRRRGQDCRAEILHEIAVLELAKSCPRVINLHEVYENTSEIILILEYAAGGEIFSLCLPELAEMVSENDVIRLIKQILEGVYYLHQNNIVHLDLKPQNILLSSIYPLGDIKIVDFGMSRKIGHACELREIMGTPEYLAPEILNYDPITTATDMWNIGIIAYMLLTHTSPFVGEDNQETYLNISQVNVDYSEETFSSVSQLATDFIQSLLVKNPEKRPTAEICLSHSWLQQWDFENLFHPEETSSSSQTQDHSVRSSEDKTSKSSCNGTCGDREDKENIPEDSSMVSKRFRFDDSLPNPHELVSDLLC
Sequence of PLK4 (human) (O00444 whole entry, looked up): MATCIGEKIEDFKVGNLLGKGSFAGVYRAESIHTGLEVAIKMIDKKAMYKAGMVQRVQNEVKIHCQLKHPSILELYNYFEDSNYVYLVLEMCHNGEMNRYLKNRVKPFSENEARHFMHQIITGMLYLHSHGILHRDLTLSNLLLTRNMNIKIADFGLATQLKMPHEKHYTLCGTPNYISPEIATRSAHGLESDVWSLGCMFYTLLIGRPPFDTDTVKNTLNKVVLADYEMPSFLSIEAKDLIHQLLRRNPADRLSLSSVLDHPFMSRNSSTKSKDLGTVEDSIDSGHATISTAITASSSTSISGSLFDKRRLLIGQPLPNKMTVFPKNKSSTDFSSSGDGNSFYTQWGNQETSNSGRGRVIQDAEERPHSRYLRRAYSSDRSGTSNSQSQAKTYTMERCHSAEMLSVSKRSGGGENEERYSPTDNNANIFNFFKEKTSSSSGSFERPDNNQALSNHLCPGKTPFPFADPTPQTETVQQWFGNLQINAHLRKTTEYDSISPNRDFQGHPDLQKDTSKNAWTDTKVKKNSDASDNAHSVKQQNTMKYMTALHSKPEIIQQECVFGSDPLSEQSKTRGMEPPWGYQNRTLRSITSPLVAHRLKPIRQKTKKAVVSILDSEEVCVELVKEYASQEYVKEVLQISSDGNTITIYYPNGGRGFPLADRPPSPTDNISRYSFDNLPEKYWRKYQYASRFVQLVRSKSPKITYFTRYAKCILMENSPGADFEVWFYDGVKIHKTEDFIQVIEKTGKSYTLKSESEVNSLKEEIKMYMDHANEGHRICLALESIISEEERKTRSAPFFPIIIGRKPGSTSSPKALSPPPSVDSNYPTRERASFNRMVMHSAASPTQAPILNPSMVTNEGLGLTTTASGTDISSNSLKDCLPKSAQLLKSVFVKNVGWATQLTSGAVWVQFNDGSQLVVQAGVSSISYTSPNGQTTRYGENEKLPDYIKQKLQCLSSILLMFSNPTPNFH
Sequence of TTK (human) (P33981 whole entry, looked up): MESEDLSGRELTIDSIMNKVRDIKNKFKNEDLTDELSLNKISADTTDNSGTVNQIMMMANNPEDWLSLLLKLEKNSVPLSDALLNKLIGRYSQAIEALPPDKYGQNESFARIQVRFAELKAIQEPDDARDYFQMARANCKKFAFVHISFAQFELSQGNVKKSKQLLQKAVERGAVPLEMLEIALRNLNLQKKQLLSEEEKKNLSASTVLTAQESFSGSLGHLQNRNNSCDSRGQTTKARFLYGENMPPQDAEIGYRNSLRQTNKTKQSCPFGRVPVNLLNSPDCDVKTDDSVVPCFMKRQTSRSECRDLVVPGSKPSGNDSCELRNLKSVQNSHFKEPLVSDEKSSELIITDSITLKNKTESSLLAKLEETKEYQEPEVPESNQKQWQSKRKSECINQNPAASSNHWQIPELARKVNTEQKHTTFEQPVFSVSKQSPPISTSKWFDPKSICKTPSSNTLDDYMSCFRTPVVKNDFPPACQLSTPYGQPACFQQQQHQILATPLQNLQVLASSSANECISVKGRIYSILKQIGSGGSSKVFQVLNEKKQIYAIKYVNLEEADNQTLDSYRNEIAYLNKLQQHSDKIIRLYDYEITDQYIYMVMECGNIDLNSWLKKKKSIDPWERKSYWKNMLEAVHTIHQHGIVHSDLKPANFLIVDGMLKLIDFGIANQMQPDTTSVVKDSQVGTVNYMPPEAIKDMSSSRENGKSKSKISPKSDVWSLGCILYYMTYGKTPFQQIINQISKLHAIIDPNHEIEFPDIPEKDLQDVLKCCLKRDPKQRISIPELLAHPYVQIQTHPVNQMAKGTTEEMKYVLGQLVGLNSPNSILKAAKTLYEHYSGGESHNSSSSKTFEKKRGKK
Sequence of MYLK2 (human) (Q9H1R3 whole entry, looked up): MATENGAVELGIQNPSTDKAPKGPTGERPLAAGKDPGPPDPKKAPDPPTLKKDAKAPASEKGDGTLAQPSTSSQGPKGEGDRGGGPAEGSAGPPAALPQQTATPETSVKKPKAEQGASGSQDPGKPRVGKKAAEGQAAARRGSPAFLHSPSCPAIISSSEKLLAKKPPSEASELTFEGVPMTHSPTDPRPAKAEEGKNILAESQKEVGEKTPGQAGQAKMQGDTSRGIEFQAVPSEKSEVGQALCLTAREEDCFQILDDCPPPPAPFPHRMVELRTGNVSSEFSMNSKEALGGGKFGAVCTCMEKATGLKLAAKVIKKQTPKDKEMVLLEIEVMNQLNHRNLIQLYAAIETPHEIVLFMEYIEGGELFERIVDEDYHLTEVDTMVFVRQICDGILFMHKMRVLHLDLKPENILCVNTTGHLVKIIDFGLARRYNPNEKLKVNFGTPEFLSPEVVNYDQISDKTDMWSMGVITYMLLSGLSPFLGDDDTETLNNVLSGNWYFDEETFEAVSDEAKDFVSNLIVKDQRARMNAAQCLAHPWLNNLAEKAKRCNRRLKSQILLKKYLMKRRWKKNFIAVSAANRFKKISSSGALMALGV
Sequence of AURKA (human) (O14965 whole entry, looked up): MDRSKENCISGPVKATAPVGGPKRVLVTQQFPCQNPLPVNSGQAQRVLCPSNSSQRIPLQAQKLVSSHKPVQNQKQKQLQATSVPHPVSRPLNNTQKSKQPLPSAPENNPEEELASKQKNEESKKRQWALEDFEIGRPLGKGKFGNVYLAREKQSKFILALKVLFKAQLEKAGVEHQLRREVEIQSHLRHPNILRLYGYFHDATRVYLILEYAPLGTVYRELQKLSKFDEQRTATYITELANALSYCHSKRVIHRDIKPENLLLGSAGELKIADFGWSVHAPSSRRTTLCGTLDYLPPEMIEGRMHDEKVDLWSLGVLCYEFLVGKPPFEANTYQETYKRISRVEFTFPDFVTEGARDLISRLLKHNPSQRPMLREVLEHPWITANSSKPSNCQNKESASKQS
Sequence of STK33 (human) (Q9BYT3 whole entry, looked up): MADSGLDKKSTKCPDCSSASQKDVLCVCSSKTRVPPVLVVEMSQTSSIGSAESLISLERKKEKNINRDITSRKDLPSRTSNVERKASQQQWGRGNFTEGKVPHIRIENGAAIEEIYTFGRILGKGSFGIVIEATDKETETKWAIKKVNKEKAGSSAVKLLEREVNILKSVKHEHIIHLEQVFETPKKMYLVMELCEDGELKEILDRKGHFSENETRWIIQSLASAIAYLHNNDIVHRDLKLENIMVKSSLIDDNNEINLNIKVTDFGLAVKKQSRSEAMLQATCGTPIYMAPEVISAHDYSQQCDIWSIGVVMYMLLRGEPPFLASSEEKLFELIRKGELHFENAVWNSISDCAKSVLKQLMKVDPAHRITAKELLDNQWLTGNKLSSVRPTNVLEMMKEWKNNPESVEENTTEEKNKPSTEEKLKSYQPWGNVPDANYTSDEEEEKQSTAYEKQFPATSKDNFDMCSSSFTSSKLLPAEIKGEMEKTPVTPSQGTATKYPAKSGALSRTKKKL
Sequence of RPS6KA4 KD1 (human) (O75676 whole entry, looked up): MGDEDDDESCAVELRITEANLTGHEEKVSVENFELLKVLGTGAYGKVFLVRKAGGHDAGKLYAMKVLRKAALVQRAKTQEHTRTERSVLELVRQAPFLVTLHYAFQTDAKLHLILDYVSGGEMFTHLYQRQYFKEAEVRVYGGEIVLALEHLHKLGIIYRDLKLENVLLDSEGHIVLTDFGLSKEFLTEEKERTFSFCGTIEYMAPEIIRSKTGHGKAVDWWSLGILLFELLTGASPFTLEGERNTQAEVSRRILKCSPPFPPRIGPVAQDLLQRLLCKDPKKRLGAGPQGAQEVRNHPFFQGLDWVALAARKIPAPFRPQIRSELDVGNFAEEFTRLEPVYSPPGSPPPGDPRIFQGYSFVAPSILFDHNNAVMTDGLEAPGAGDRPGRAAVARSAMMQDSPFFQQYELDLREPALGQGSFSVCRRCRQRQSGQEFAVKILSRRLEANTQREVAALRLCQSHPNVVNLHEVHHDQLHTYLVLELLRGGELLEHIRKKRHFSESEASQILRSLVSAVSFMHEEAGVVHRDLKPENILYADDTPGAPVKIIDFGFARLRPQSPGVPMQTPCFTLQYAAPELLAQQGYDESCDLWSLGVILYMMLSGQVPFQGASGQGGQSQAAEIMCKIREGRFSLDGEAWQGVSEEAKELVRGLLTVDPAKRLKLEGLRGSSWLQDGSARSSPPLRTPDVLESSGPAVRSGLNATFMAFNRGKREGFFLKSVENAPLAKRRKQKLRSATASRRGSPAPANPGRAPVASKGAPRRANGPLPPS

kinase still bound, per cent of control (AAK1 (human)): no effect (inactive) | kinase still bound, per cent of control (AURKA (human)): no effect (inactive) | kinase still bound, per cent of control (CDK16 (human)): no effect (inactive) | kinase still bound, per cent of control (CDK5 (human)): no effect (inactive) | kinase still bound, per cent of control (CLK2 (human)): no effect (inactive) | kinase still bound, per cent of control (EPHA2 (human)): no effect (inactive) | kinase still bound, per cent of control (EPHB4 (human)): no effect (inactive) | kinase still bound, per cent of control (FGFR1 (human)): no effect (inactive) | kinase still bound, per cent of control [1]: no effect (inactive) | kinase still bound, per cent of control (MYLK2 (human)): no effect (inactive) | kinase still bound, per cent of control (NTRK3 (human)): no effect (inactive) | kinase still bound, per cent of control (PAK1 (human)): no effect (inactive) | kinase still bound, per cent of control (PDGFRA (human)): 0% | kinase still bound, per cent of control (PLK4 (human)): no effect (inactive) | kinase still bound, per cent of control (PRKCA (human)): no effect (inactive) | kinase still bound, per cent of control (PRKCH (human)): 0% | kinase still bound, per cent of control (RPS6KA4 KD1 (human)): no effect (inactive) | kinase still bound, per cent of control (STK17B (human)): no effect (inactive) | kinase still bound, per cent of control (STK33 (human)): no effect (inactive) | kinase still bound, per cent of control (TTK (human)): no effect (inactive) | kinase still bound, per cent of control (YES1 (human)): 0%
SMILES: Nc1ncnc2c1c(-c1cccc(O)c1)cn2C1CCNCC1
kinase still bound, per cent of control (NEK9 (human)): no effect (inactive)

Reference: the kinase profiling compilation of Christmann-Franck et al. (2016)
